From paper PMC5915715, “Inhibitors of both the N-methyl lysyl- and arginyl-demethylase activities of the JmjC oxygenases” (Philosophical Transactions of the Royal Society B: …, 2018)

T1: KDM4E (JMJD2E); KDM4E(1-377) (Homo sapiens, UniProt B2RXH2)
T1 construct: residues 1-377 (JmjN and JmjC domains); recombinant, E. coli BL21(DE3)-R3 with pRARE2
T1 sequence (B2RXH2 1-377): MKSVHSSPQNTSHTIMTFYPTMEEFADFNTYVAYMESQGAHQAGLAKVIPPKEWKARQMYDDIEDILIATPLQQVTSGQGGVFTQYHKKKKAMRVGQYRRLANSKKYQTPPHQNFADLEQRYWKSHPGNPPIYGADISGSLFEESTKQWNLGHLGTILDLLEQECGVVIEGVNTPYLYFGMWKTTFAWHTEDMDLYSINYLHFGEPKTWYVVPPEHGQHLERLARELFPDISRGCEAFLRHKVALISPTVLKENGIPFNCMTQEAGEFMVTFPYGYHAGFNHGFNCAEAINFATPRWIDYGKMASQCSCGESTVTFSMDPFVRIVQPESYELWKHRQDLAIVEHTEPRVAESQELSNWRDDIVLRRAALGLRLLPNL

B1: KDM4E (JMJD2E); KDM4E(1-377) (Homo sapiens) (protein)
chain: T1 sequence (B2RXH2 1-377)
notes: residues 1-377 (JmjN and JmjC domains); recombinant, E. coli BL21(DE3)-R3 with pRARE2

target: T1, KDM4E (JMJD2E); KDM4E(1-377); experiment: RapidFire MS demethylation assay; type: biochemical; conditions: read-out: pIC50 ± s.e.m. / inhibition of H3(1-15)K9me2 demethylation (converted)

Row | Molecule | IC50 [µM]
1 | O=C(O)CC[C@H](O)C(=O)O [L-2HG] | 13.5
2 | O=C(O)CC[C@@H](O)C(=O)O [D-2HG] | 11.5
3 | CN(C)CCCNC(=O)c1ccc(-c2cc(O)c3ncccc3c2)cc1 [ML324] | 4.79
4 | O=C(O)CCC(=O)O [succinate] | 148
5 | CCN(CCN(C)C)C(=O)CNCc1cc(C(N)=O)ccn1 [KDOAM25] | 182
6 | CC(C)c1c(-c2ccccc2)[nH]c2c(C#N)cnn2c1=O [CPI-455] | 4.47
7 | CCN(CCN(C)C)C(=O)CNCc1cc(C(=O)O)ccn1 [KDM5-C49] | 2.09
8 | CC(=O)N(O)CCCCCNC(=O)CCC(=O)N(O)CCCCCNC(=O)CCC(=O)N(O)CCCCCN [deferoxamine] | 2.4
9 | O=C(O)/C=C/C(=O)O [fumarate] | 1950

target: T1, KDM4E (JMJD2E); KDM4E(1-377); experiment: RapidFire MS demethylation assay; type: biochemical; conditions: KDM activity: 5 µM H3(1-15)K9me2, 0.25 µM enzyme, 10 µM Fe(II), 100 µM ascorbate, 10 µM 2OG, 50 mM HEPES pH 7.5, 15 min; iron chelator, may act by chelating iron in solution; unreliable (printed s.e.m)
Excerpt: RapidFire MS demethylation assay on KDM4E (JMJD2E); KDM4E(1-377)

Row | Molecule | pIC50 ± s.e.m. / inhibition of H3(1-15)K9me2 demethylation
10 | O=C(O)CN(CCN(CC(=O)O)CC(=O)O)CC(=O)O [EDTA] | 5.82 ± 6.53 -log10(M)

substrate: O=C(O)CCC(=O)C(=O)O; experiment: steady-state kinetics (supplement); type: biochemical, Homo sapiens; conditions: 50 mM HEPES pH 7.5, Fe(II), ascorbate, approximate value, peptide substrate not stated

Row | Molecule | Km [µM]
11 | B1 | 10
